Legend:
[1] = test system: IPOHE (Morningglory, Ivyleaf); experiment: Postemergence herbicidal evaluation; assay type: in vivo, Ipomoea hederacea; details: postemergence
Description: (§1) In the tests, seedling plants are grown in jiffy flats for about two weeks. The test compounds are dispersed in 50/50 acetone/water mixtures containing 0.5% TWEEN®20, a polyoxyethylene sorbitan monolaurate surfactant of Atlas Chemical Industries, in sufficient quantities to provide the equivalent of about 0.0156 kg to 0.500 kg per hectare of active compound when applied to the plants through a spray nozzle operating at 40 psi for a predetermined time. After spraying, the plants are placed on greenhouse benches and are cared for in accordance with conventional greenhouse procedures. From four to five weeks after treatment, the seedling plants are examined and rated according to the rating system set forth below. Where more than one test is involved for a given compound, the data are averaged.
(§2) Plant species employed in these evaluations are reported by header abbreviation, common name and scientific name.
(§3) Results of herbicide evaluation are expressed on a rating scale (0-9). The scale is based upon a visual observation of plant stand, vigor, malformation, size, chlorosis and overall plant appearance as compared with a control.

ABUTH (Velvetleaf) = experiment: Postemergence herbicidal evaluation; assay type: in vivo, Abutilon theophrasti; details: postemergence
Outline: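 Scores (0–9) reflect plant stand, vigor, malformation, size, chlorosis and general appearance relative to control, read 4 to 5 weeks after treatment and averaged where tests were repeated. Application: about 0.0156–0.500 kg/ha sprayed at 40 psi onto two-week seedlings.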

[2] = test system: ECHORC (Watergrass (Calif.)); experiment: Preemergence weed control under flooded paddy conditions; assay type: in vivo, Echinochloa oryzoides; details: rated 3-4 weeks after treatment
Outline: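 Ratings on a 0-9 visual scale cover stand, vigor, malformation, size, chlorosis and overall appearance relative to a control, taken three to four weeks post-treatment. Application was into flood water over freshly sown silt loam at roughly 0.0313 to 0.500 kg/ha.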

ORYSAT (Rice, Tebonnet) = experiment: Preemergence herbicidal evaluation; assay type: in vivo, Oryza sativa, (L.) Tebonnet; details: rated 4-5 weeks after treatment
Source text: as §3
(§4) The preemergence herbicidal activity of the test compounds of the present invention is exemplified by the following tests in which the seeds of a variety of monocotyledonous and dicotyledonous plants are separately mixed with potting soil and planted on top of approximately one inch of soil in separate pint cups. After planting, the cups are sprayed with the selected aqueous acetone solution containing test compound in sufficient quantity to provide the equivalent of about 0.0156 to 0.500 kg per hectare of test compound per cup. The treated cups are then placed on greenhouse benches, watered and cared for in accordance with conventional greenhouse procedures. From four to five weeks after treatment, the tests are terminated and each cup is examined and rated according to the rating system provided in Example 37.
(§5) The compounds evaluated are reported by compound number given in Example 37.

[3] = test system: CHEAL (Lambsquarters, Common); experiment: Preemergence herbicidal evaluation; assay type: in vivo, Chenopodium album; details: rated 4-5 weeks after treatment
Source text: as §3, §4, §5

[4] = test system: TRZAWR (Wheat, Winter, cv Riband); experiment: Postemergence herbicidal evaluation; assay type: in vivo, Triticum aestivum; details: postemergence
Description: as §1, §2, §3

[5] = test system: TRZAWR (Wheat, Winter, cv Riband); experiment: Preemergence herbicidal evaluation; assay type: in vivo, Triticum aestivum; details: rated 4-5 weeks after treatment
Source text: as §3, §4, §5

SETVI (Foxtail, Green) = experiment: Preemergence herbicidal evaluation; assay type: in vivo, Setaria viridis; details: rated 4-5 weeks after treatment
Source text: as §3, §4, §5

ECHCG (Barnyardgrass) = experiment: Preemergence herbicidal evaluation; assay type: in vivo, Echinochloa crus-galli; details: rated 4-5 weeks after treatment
Source text: as §3, §4, §5

[6] = test system: IPOHE (Morningglory, Ivyleaf); experiment: Preemergence herbicidal evaluation; assay type: in vivo, Ipomoea hederacea; details: rated 4-5 weeks after treatment
Source text: as §3, §4, §5

MOOVA (Monochoria) = experiment: Preemergence weed control under flooded paddy conditions; assay type: in vivo, Monochoria vaginalis; details: rated 3-4 weeks after treatment
Outline: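 Values are visual 0-9 scores against a control for a preemergence application into paddy flood water at about 0.0313 to 0.500 kg/ha. Greenhouse duration was three to four weeks.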

SMILES: CC(C)OC(=O)CN1C(=O)CSC1=Nc1cc(-n2c(=O)cc(C(F)(F)F)n(C)c2=O)c(F)cc1Cl [Compound 110]
- Herbicidal rating IPOHE ([1]; rate 0.0158 kg/ha): 9.0
- Herbicidal rating IPOHE ([1]; rate 0.0315 kg/ha): 9.0
- Herbicidal rating IPOHE ([1]; rate 0.0630 kg/ha): 9.0
- Herbicidal rating ABUTH (ABUTH (Velvetleaf); rate 0.0158 kg/ha): 9.0
- Herbicidal rating ABUTH (ABUTH (Velvetleaf); rate 0.0315 kg/ha): 9.0
- Herbicidal rating ABUTH (ABUTH (Velvetleaf); rate 0.0630 kg/ha): 9.0
- ECHORC herbicidal effect rating ([2]; 0.0313 kg/ha): 7.0
- ECHORC herbicidal effect rating ([2]; 0.0625 kg/ha): 7.0
- ECHORC herbicidal effect rating ([2]; 0.1250 kg/ha): 7.0
- ECHORC herbicidal effect rating ([2]; 0.2500 kg/ha): 9.0
- Preemergence herbicidal rating ORYSAT (ORYSAT (Rice, Tebonnet); rate 0.0156 kg/ha): 0.0
- Preemergence herbicidal rating ORYSAT (ORYSAT (Rice, Tebonnet); rate 0.0313 kg/ha): 0.5
- Preemergence herbicidal rating ORYSAT (ORYSAT (Rice, Tebonnet); rate 0.0625 kg/ha): 0.5
- Preemergence herbicidal rating ORYSAT (ORYSAT (Rice, Tebonnet); rate 0.1250 kg/ha): 1.5
- Preemergence herbicidal rating ORYSAT (ORYSAT (Rice, Tebonnet); rate 0.2500 kg/ha): 5.0
- Preemergence herbicidal rating ORYSAT (ORYSAT (Rice, Tebonnet); rate 0.5000 kg/ha): 3.0
- Preemergence herbicidal rating CHEAL ([3]; rate 0.0156 kg/ha): 8.0
- Preemergence herbicidal rating CHEAL ([3]; rate 0.0313 kg/ha): 9.0
- Preemergence herbicidal rating CHEAL ([3]; rate 0.0625 kg/ha): 9.0
- Preemergence herbicidal rating CHEAL ([3]; rate 0.1250 kg/ha): 9.0
- Preemergence herbicidal rating CHEAL ([3]; rate 0.2500 kg/ha): 9.0
- Preemergence herbicidal rating CHEAL ([3]; rate 0.5000 kg/ha): 9.0
- Herbicidal rating TRZAWR ([4]; rate 0.0158 kg/ha): 2.5
- Herbicidal rating TRZAWR ([4]; rate 0.0315 kg/ha): 3.5
- Herbicidal rating TRZAWR ([4]; rate 0.0630 kg/ha): 4.0
- Preemergence herbicidal rating TRZAWR ([5]; rate 0.0156 kg/ha): 0.0
- Preemergence herbicidal rating TRZAWR ([5]; rate 0.0313 kg/ha): 1.0
- Preemergence herbicidal rating TRZAWR ([5]; rate 0.0625 kg/ha): 1.0
- Preemergence herbicidal rating TRZAWR ([5]; rate 0.1250 kg/ha): 1.0
- Preemergence herbicidal rating TRZAWR ([5]; rate 0.2500 kg/ha): 1.0
- Preemergence herbicidal rating SETVI (SETVI (Foxtail, Green); rate 0.0156 kg/ha): 1.5
- Preemergence herbicidal rating SETVI (SETVI (Foxtail, Green); rate 0.0313 kg/ha): 2.5
- Preemergence herbicidal rating SETVI (SETVI (Foxtail, Green); rate 0.0625 kg/ha): 5.0
- Preemergence herbicidal rating SETVI (SETVI (Foxtail, Green); rate 0.1250 kg/ha): 8.0
- Preemergence herbicidal rating SETVI (SETVI (Foxtail, Green); rate 0.2500 kg/ha): 9.0
- Preemergence herbicidal rating SETVI (SETVI (Foxtail, Green); rate 0.5000 kg/ha): 9.0
- Preemergence herbicidal rating ECHCG (ECHCG (Barnyardgrass); rate 0.0156 kg/ha): 0.0
- Preemergence herbicidal rating ECHCG (ECHCG (Barnyardgrass); rate 0.0313 kg/ha): 0.0
- Preemergence herbicidal rating ECHCG (ECHCG (Barnyardgrass); rate 0.0625 kg/ha): 0.5
- Preemergence herbicidal rating ECHCG (ECHCG (Barnyardgrass); rate 0.1250 kg/ha): 2.0
- Preemergence herbicidal rating ECHCG (ECHCG (Barnyardgrass); rate 0.2500 kg/ha): 3.0
- Preemergence herbicidal rating ECHCG (ECHCG (Barnyardgrass); rate 0.5000 kg/ha): 4.0
- Preemergence herbicidal rating IPOHE ([6]; rate 0.0156 kg/ha): 3.5
- Preemergence herbicidal rating IPOHE ([6]; rate 0.0313 kg/ha): 4.5
- Preemergence herbicidal rating IPOHE ([6]; rate 0.0625 kg/ha): 5.5
- Preemergence herbicidal rating IPOHE ([6]; rate 0.1250 kg/ha): 9.0
- Preemergence herbicidal rating IPOHE ([6]; rate 0.2500 kg/ha): 9.0
- Preemergence herbicidal rating IPOHE ([6]; rate 0.5000 kg/ha): 9.0
- MOOVA herbicidal effect rating (MOOVA (Monochoria); 0.0313 kg/ha): 9.0
- MOOVA herbicidal effect rating (MOOVA (Monochoria); 0.0625 kg/ha): 9.0
- MOOVA herbicidal effect rating (MOOVA (Monochoria); 0.1250 kg/ha): 9.0
- MOOVA herbicidal effect rating (MOOVA (Monochoria); 0.2500 kg/ha): 9.0

SMILES: Cn1c(C(F)(F)F)cc(=O)n(-c2cc(N=C3SCC(=O)N3CC(=O)OC3CCCC3)c(Cl)cc2F)c1=O [Compound 120, Cyclopentyl 2-{{2-chloro-5-[3,6-dihydro-3-methyl-2,6-dioxo-4-(trifluoromethyl)-1(2H)-pyrimidinyl]-4-fluorophenyl}imino}-4-oxo-3-thiazolidineacetate]
- Herbicidal rating IPOHE ([1]; rate 0.0156 kg/ha): 9.0
- Herbicidal rating IPOHE ([1]; rate 0.0313 kg/ha): 9.0
- Herbicidal rating IPOHE ([1]; rate 0.0625 kg/ha): 9.0
- Herbicidal rating ABUTH (ABUTH (Velvetleaf); rate 0.0156 kg/ha): 9.0
- Herbicidal rating ABUTH (ABUTH (Velvetleaf); rate 0.0313 kg/ha): 9.0
- Herbicidal rating ABUTH (ABUTH (Velvetleaf); rate 0.0625 kg/ha): 9.0
- herbicidal effect rating, ECHORC ([2]; 0.0313 kg/ha): 7.0
- herbicidal effect rating, ECHORC ([2]; 0.0625 kg/ha): 8.0
- herbicidal effect rating, ECHORC ([2]; 0.1250 kg/ha): 9.0
- herbicidal effect rating, ECHORC ([2]; 0.2500 kg/ha): 9.0
- Preemergence herbicidal rating ORYSAT (ORYSAT (Rice, Tebonnet); rate 0.0156 kg/ha): 0.0
- Preemergence herbicidal rating ORYSAT (ORYSAT (Rice, Tebonnet); rate 0.0313 kg/ha): 0.0
- Preemergence herbicidal rating ORYSAT (ORYSAT (Rice, Tebonnet); rate 0.0625 kg/ha): 0.0
- Preemergence herbicidal rating ORYSAT (ORYSAT (Rice, Tebonnet); rate 0.1250 kg/ha): 0.0
- Preemergence herbicidal rating ORYSAT (ORYSAT (Rice, Tebonnet); rate 0.2500 kg/ha): 0.0
- Preemergence herbicidal rating CHEAL ([3]; rate 0.0156 kg/ha): 9.0
- Preemergence herbicidal rating CHEAL ([3]; rate 0.0313 kg/ha): 9.0
- Preemergence herbicidal rating CHEAL ([3]; rate 0.0625 kg/ha): 9.0
- Preemergence herbicidal rating CHEAL ([3]; rate 0.1250 kg/ha): 9.0
- Preemergence herbicidal rating CHEAL ([3]; rate 0.2500 kg/ha): 9.0
- Herbicidal rating TRZAWR ([4]; rate 0.0156 kg/ha): 3.5
- Herbicidal rating TRZAWR ([4]; rate 0.0313 kg/ha): 4.5
- Herbicidal rating TRZAWR ([4]; rate 0.0625 kg/ha): 5.0
- Preemergence herbicidal rating TRZAWR ([5]; rate 0.0156 kg/ha): 0.0
- Preemergence herbicidal rating TRZAWR ([5]; rate 0.0313 kg/ha): 0.0
- Preemergence herbicidal rating TRZAWR ([5]; rate 0.0625 kg/ha): 0.0
- Preemergence herbicidal rating TRZAWR ([5]; rate 0.1250 kg/ha): 0.0
- Preemergence herbicidal rating TRZAWR ([5]; rate 0.2500 kg/ha): 4.0
- Preemergence herbicidal rating SETVI (SETVI (Foxtail, Green); rate 0.0156 kg/ha): 0.0
- Preemergence herbicidal rating SETVI (SETVI (Foxtail, Green); rate 0.0313 kg/ha): 0.0
- Preemergence herbicidal rating SETVI (SETVI (Foxtail, Green); rate 0.0625 kg/ha): 9.0
- Preemergence herbicidal rating SETVI (SETVI (Foxtail, Green); rate 0.1250 kg/ha): 9.0
- Preemergence herbicidal rating SETVI (SETVI (Foxtail, Green); rate 0.2500 kg/ha): 9.0
- Preemergence herbicidal rating ECHCG (ECHCG (Barnyardgrass); rate 0.0156 kg/ha): 0.0
- Preemergence herbicidal rating ECHCG (ECHCG (Barnyardgrass); rate 0.0313 kg/ha): 0.0
- Preemergence herbicidal rating ECHCG (ECHCG (Barnyardgrass); rate 0.0625 kg/ha): 0.0
- Preemergence herbicidal rating ECHCG (ECHCG (Barnyardgrass); rate 0.1250 kg/ha): 0.0
- Preemergence herbicidal rating ECHCG (ECHCG (Barnyardgrass); rate 0.2500 kg/ha): 2.0
- Preemergence herbicidal rating IPOHE ([6]; rate 0.0156 kg/ha): 0.0
- Preemergence herbicidal rating IPOHE ([6]; rate 0.0313 kg/ha): 0.0
- Preemergence herbicidal rating IPOHE ([6]; rate 0.0625 kg/ha): 0.0
- Preemergence herbicidal rating IPOHE ([6]; rate 0.1250 kg/ha): 4.0
- Preemergence herbicidal rating IPOHE ([6]; rate 0.2500 kg/ha): 9.0
- herbicidal effect rating, MOOVA (MOOVA (Monochoria); 0.0313 kg/ha): 8.5
- herbicidal effect rating, MOOVA (MOOVA (Monochoria); 0.0625 kg/ha): 9.0
- herbicidal effect rating, MOOVA (MOOVA (Monochoria); 0.1250 kg/ha): 9.0
- herbicidal effect rating, MOOVA (MOOVA (Monochoria); 0.2500 kg/ha): 9.0

— patent publication US20020137929A1, “1 - (3-heterocyclylphenyl) isothiourea, -isourea, -guanidine and -amidine herbicidal agents” (Intellectual Property Department, BASF Aktiengesellschaft, priority 1998, published 2002)
